Experimental data published in patent publication US8138188B2, “Melanocortin type 4 receptor agonist piperidinoylpyrrolidines” (Pfizer Inc., priority 2006, dated 2012).

Tests used:
CYP3A4 = target: T1, CYP3A4 (Homo sapiens, UniProt P08684); test: High density drug-drug interactions (DDI) 3 μM cocktail screen in human liver microsomes; type: in vitro ADME; conditions: 3 uM test compound, pooled human liver microsomes, probe midazolam 2 μM; read-out: % Inhibition of 3A4 metabolism at 3 uM
T1 construct: utilizes human liver microsomes together with isoform-specific clinical drug probes; from tissue; host or cells: human liver microsomes
Description: High Density Drug-Drug Interactions (DDI) 3 μM Cocktail Screen
A drug interaction is a situation in which a substance affects the activity of another drug, i.e. the effects are increased or decreased, or together they produce a new effect that neither produces on its own. Drug interactions may be the result of various processes but a relatively common one is where one drug affects the pharmacokinetics of another by inhibiting the cytochrome P450 that metabolises it. Because of the importance of these phenomena, assessment of the DDI potential for new chemical entities (NCEs) is considered important early on in the drug discovery process.
The DDI cocktail screen in human liver microsomes (HLM) is run in a fully automated fashion and the aim of the screen is to provide a single-point assessment of the DDI potential of new chemical entity (NCE; tested at 3 μM) against the 4 primary cytochrome P450 enzymes, 1A2, 2D6, 2C9 and 3A4.
The substrate cocktail approach for P450 DDI utilizes human liver microsomes together with isoform-specific clinical drug probes and permits the simultaneous measurement of the inhibition of P450 1A2, 2C9, 2D6 & 3A4 activities in a single incubation. This is run in high throughput with simultaneous detection of metabolites by LC-MS/MS. This method has been thoroughly tested and evaluated using standard compounds.
Appearance of the metabolite of each substrate is measured over time in the presence and absence of the NCE (test compound/inhibitor) at a concentration of 3 μM. The compounds are assessed for their inhibitory potential as a percentage value and interpreted using the following scheme.

MC4 receptor (MC4R) = target: T2, MC4 receptor (MC4R) (Homo sapiens, UniProt P32245); test: AGRP inhibition: competition binding vs [125I]AGRP(87-132) at CHO-CRE MC4R cell membranes; conditions: vs 0.3 nM [125I]AGRP(87-132)
T2 construct: expressed in transfected cells; host or cells: CHO-CRE MC4R cells (membranes)
From the text: Agouti related protein (AGRP) is a high affinity endogenous antagonist/inverse agonist for the MC4 receptor (Lu et al., 1994, Nature 371: 799-802; Oilman et al., 1997, Science 278: 135-138). […] It has been ascertained that this C-terminal fragment of AGRP contains the MC4R binding determinants (Yang et al., 1999, Mol Endocrinol 13: 148-155), therefore, compounds can be evaluated for their ability to inhibit AGRP binding to membranes from cells expressing the MC4R using a competition binding assay versus [^125I]AGRP(87-132). To this end cells expressing the MC4R were subject to homogenisation and the membrane fragment isolated by differential centrifugation. CHO-CRE MC4R cell membranes (12 μg protein) were incubated with 0.3 nM [^125I]AGRP(87-132) and 11 half-log concentrations of competitor ligand, in duplicate, in a total volume of 100 μl buffer (25 mM HEPES, 1 mM MgCl2, 2.5 mM CaCl2, 0.5% BSA pH 7.0). Non-specific binding was determined by the inclusion of 1 μM SHU9119. The reaction was initiated by the addition of membranes and plates were incubated at room temperature for 2 hours. The reaction was terminated by rapid filtration onto GF/C filters (presoaked in 1% PEI) using a vacuum harvester followed by five 200 μl washes of ice cold wash buffer (Binding buffer containing 500 mM NaCl). The filters were soaked in 50 μl scintillation fluid and the amount of radioactivity present was determined by liquid scintillation counting. Ki values were determined by data analysis using appropriate software.

T2 sequence (P32245 whole entry): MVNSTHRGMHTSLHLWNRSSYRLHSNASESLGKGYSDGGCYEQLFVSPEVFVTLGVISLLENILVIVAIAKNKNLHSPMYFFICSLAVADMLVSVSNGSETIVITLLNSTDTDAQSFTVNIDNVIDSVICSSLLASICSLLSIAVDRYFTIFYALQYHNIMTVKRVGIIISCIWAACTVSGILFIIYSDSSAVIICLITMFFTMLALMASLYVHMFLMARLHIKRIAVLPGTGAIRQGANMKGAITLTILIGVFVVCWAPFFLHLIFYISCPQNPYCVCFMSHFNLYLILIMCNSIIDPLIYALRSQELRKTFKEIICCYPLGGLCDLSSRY
T1 sequence (P08684 whole entry, canonical isoform): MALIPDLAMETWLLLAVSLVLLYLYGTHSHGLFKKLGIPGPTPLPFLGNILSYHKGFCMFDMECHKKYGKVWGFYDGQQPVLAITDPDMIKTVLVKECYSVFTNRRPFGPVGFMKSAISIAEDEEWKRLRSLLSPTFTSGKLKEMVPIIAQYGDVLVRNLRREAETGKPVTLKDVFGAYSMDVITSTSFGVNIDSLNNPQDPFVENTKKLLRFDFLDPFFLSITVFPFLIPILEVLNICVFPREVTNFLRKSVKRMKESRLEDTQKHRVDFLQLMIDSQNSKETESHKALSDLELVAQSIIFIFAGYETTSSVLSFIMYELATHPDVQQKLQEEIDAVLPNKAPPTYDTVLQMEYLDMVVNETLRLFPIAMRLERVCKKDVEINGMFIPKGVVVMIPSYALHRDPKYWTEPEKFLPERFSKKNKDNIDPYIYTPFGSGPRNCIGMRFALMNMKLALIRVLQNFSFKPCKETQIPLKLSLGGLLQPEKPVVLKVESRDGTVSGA

inhibition at 3 μM (CYP3A4)	Ki (MC4 receptor (MC4R))	SMILES
44%	248 nM	COc1ccc([C@@H]2CN(c3ccc(C#N)nn3)C[C@H]2C(=O)N2C[C@@H](C)[C@](O)(c3ccc(F)cc3)[C@@H](C)C2)nc1 [Example 43]
69%	251 nM	CC1CN(C(=O)C2CN(c3ccc(C#N)cn3)CC2c2ccc(C#N)cn2)CC(C)C1(O)c1ccc(F)cc1 (stereo not drawn) [Example 45]
74%	134 nM	C[C@@H]1CN(C(=O)[C@@H]2CN(c3ccc(C#N)nn3)C[C@H]2c2ccc(C#N)cn2)C[C@H](C)[C@@]1(O)c1ccc(F)cc1 [Example 46]
